Converted amounts (≈) assume the structure as drawn. Where two headings read alike, the source gives them in different places. Where a SMILES comes first, the peptide text is derived from it. The star is where a group is joined. Myristoyl = CCCCCCCCCCCCCC(=O)*
Legend:
[1] = tested on: C. auris clinical isolates; assay type: cell-based, Candida auris; conditions: for MIC: CLSI broth microdilution, RPMI 1640
Procedure: (§1) The antifungal activity of AMPs was determined against 50 clinical isolates, 10 for each of the following Candida species: C. albicans, C. tropicalis, C. glabrata, C. parapsilosis, and C. auris. The latter were derived from patients with positive blood cultures in four hospitals in India, with known resistance profiles to fluconazole, voriconazole, and echinocandins. Yeast cells were grown in Brain Heart Infusion (BHI) medium (Sigma-Aldrich, Gillingham, UK) for 16 h at 37 °C in a 150-rpm orbital shaker. Cells were then sub-inoculated in a fresh BHI medium and grown to an optical density (OD) of 0.3. The turbidity of the inoculum was adjusted to 0.5 McFarland and diluted 1:500 in RPMI 1640 broth, corresponding to around […].
(§2) Minimal inhibitory concentrations (MICs) were determined by Broth microdilution susceptibility tests, according to The Clinical and Laboratory Standards Institute (CLSI) international guidelines. A fungal suspension of 0.5 MacFarland was diluted 1:500 in RPMI 1640 broth and incubated in 96 multi-well plates containing AMPs at different concentrations ranging from 0.125 to 256 μg/mL. In this range of concentration, lipopeptides were completely soluble. […] The MIC90 represents the value at which ≥90% of the strains within a test population were inhibited.

[2] = tested on: C. tropicalis clinical isolates; assay type: cell-based, Candida tropicalis; conditions: for MIC: CLSI broth microdilution, RPMI 1640
Procedure: as §1, §2

[3] = tested on: C. albicans clinical isolates; assay type: cell-based, Candida albicans; conditions: 16 h
Procedure: as §1, §2

[4] = tested on: C. glabrata clinical isolates; assay type: cell-based, Candida glabrata; conditions: 16 h
Procedure: as §1, §2

[5] = tested on: C. parapsilosis clinical isolates; assay type: cell-based, Candida parapsilosis
Procedure: as §1, §2

[6] = Membrane partition, Trp-1 fluorescence upon titration with LUVs; assay type: binding; conditions: for KX (mole fraction partition constant): peptide 1.0 μM, 20 mM phosphate pH 7.4, 150 mM NaCl, 0.8 mM EDTA, 298 K, Trp fluorescence, quadruplicate; for ΔG: ΔG = −RT lnKx
Procedure: To quantify the interaction of different lipidated and non-lipidated peptides with membrane mimetic systems, we measured the intrinsic fluorescence of Trp-1 upon partition with LUVs (large unilamellar vesicles) of different compositions. Briefly, the mixtures of POPC/POPG (70%/30% w/w) LUVs were used to mimic anionic membranes and POPC only to mimic zwitterionic membranes. […] The mole fraction partition constants Kx were calculated from the partition isotherms as previously described. Figure 2 reports the partition isotherms for the titration of myristoylated and non-myristoylated peptides with POPC and POPC/POPG vesicles.
The values of Kx for all peptides are reported in Table 2 together with ΔG values, calculated using the expression ΔG = −RT lnKx, and the selectivity ratio defined as the ratio between partition constants determined in anionic and zwitterionic membranes. Higher values of the selectivity ratio represent a preference of the peptide for anionic vesicles, while lower values indicate a preference for the zwitterionic one.
The lipids POPC (1-palmitoyl-2-oleoyl-sn-glycero-3-phosphocholine) and POPG (1-palmitoyl-2-oleoyl-sn-glycero-3-phosphoglycerol) were purchased from Avanti Polar Lipids (Alabaster, AL, USA) and used without further purification. LUVs (Large Unilamellar Vesicles) were prepared as previously reported. Briefly, appropriate amounts of lipids were dissolved in chloroform/methanol 9:1. The solvent was then removed by rotary evaporation and samples were placed overnight under a high vacuum. The lipid film was then hydrated by adding 1 mL of buffer (20 mM phosphate buffer at pH 7.4 with 150 mM NaCl and 0.8 mM EDTA) and then subjected to 5 freeze–thaw cycles and vortexed. The multilamellar vesicles (MLVS) were extruded through a polycarbonate membrane with pores of 100 nm by an Avanti polar mini extruder, and the obtained LUVs were used within 48 h of preparation. LUVs were composed of 100% POPC and a 70%/30% (w/w) combination of POPC/POPG. The final concentration of the lipid was 10 mM.
All the steady-state fluorescence measurements were carried out using a Perkin Elmer LS55 fluorescence spectrophotometer. All the experiments were conducted at 298 K in a thermostatic cell holder and in 20 mM phosphate buffer at pH 7.4 containing 0.8 mM EDTA and 150 mM NaCl unless otherwise specified.
Since all peptides contain tryptophan, fluorescence spectroscopy is an appropriate tool for studying these molecules. Peptide partitioning between buffer and lipid vesicles was monitored by measuring the increase in tryptophan fluorescence upon the addition of LUVs. Trp fluorescence spectra were recorded with λexc = 295 nm and scanning the emission between 305 and 400 nm. Measurements were carried out with a cross-oriented configuration of polarizers (polem = 0° and polexc = 90°). Briefly, a 1.0 μM solution of the peptide was titrated with LUVs of different compositions (POPC 100% and 70%/30% POPC/POPG) as previously described. The background effects of vesicles and buffer were subtracted from each spectrum. All the fluorescence emissions were corrected for dilution. Mole fraction partition coefficients Kx were calculated from the fraction of the partitioned peptide fp as previously described. The fraction of the partitioned peptide fp is given by the following equation [53] (6) fp=Kx[L]/[W]+Kx[L] where Kx is the mole fraction partition constant, and [L] and [W] are the molar concentrations of lipids and water, respectively.

MIC90 ([1]; clinical isolates, 16 h): >256 µg/mL | MIC ([1]; isolate Candida Auris 1): > 256 µg/mL | MIC ([1]; isolate Candida Auris 2): > 256 µg/mL | MIC ([1]; isolate Candida Auris 3): > 256 µg/mL | MIC ([1]; isolate Candida Auris 4): > 256 µg/mL | MIC ([1]; isolate Candida Auris 5): > 256 µg/mL | MIC ([1]; isolate Candida Auris 6): > 256 µg/mL | MIC ([1]; isolate Candida Auris 7): > 256 µg/mL | MIC ([1]; isolate Candida Auris 8): > 256 µg/mL | MIC ([1]; isolate Candida Auris 9): > 256 µg/mL | MIC ([1]; isolate Candida Auris 10): > 256 µg/mL | MIC90 ([2]; clinical isolates, 16 h): 16 µg/mL (≈ 10.1 µM) | MIC ([2]; isolate Candida tropicalis 1): 16 µg/mL (≈ 10.1 µM) | MIC ([2]; isolate Candida tropicalis 2): 16 µg/mL (≈ 10.1 µM) | MIC ([2]; isolate Candida tropicalis 3): 16 µg/mL (≈ 10.1 µM) | MIC ([2]; isolate Candida tropicalis 4): 16 µg/mL (≈ 10.1 µM) | MIC ([2]; isolate Candida tropicalis 5): 16 µg/mL (≈ 10.1 µM) | MIC ([2]; isolate Candida tropicalis 6): 16 µg/mL (≈ 10.1 µM) | MIC ([2]; isolate Candida tropicalis 7): 16 µg/mL (≈ 10.1 µM) | MIC ([2]; isolate Candida tropicalis 8): 16 µg/mL (≈ 10.1 µM) | MIC ([2]; isolate Candida tropicalis 9): 16 µg/mL (≈ 10.1 µM) | MIC ([2]; isolate Candida tropicalis 10): 16 µg/mL (≈ 10.1 µM) | MIC90 [3]: 16 µg/mL (≈ 10.1 µM) | MIC (Range) [3]: 8 to 16 µg/mL | MIC [4]: 16 µg/mL (≈ 10.1 µM) | MIC90 [4]: 16 µg/mL (≈ 10.1 µM) | MIC ([5]; clinical isolates, 16 h): 16 µg/mL (≈ 10.1 µM) | MIC90 ([5]; clinical isolates, 16 h): 16 µg/mL (≈ 10.1 µM) | MIC ([5]; isolate Candida parapsilosis 8, CLSI broth microdilution, RPMI 1640): 16 µg/mL (≈ 10.1 µM) | MIC ([5]; isolate Candida parapsilosis 9, CLSI broth microdilution, RPMI 1640): 16 µg/mL (≈ 10.1 µM) | MIC ([5]; isolate Candida parapsilosis 10, CLSI broth microdilution, RPMI 1640): 16 µg/mL (≈ 10.1 µM) | KX (mole fraction partition constant) ([6]; POPC LUVs): (1.03 ± 0.04) × 10^5 | ΔG ([6]; POPC LUVs): -6.831 kcal/mol | KX (mole fraction partition constant) ([6]; POPC/POPG 70%/30% LUVs): (4.3 ± 0.8) × 10^5 | ΔG ([6]; POPC/POPG LUVs): -7.684 kcal/mol
SMILES: CCCCCCCCCCCCCC(=O)N[C@@H](Cc1c[nH]c2ccccc12)C(=O)N[C@@H](Cc1ccccc1)C(=O)NCC(=O)N[C@@H](CCCCN)C(=O)N[C@@H](CC(C)C)C(=O)N[C@@H](Cc1ccc(O)cc1)C(=O)N[C@@H](CCCNC(=N)N)C(=O)NCC(=O)N[C@H](C(=O)N[C@H](C(=O)N[C@@H](CCCCN)C(=O)O)[C@@H](C)O)[C@@H](C)CC [Myr-A] (Myristoyl-WFGKLYRGITK-OH; C-terminus assumed)
Selectivity Ratio ([6]; ratio between partition constants in anionic (POPC/POPG) and zwitterionic (POPC) membranes): 4.17

From PMC8875392, “Design and Characterization of Myristoylated and Non-Myristoylated Peptides Effective against Candida spp. Clinical Isolates” (International Journal of Molecular Sciences, 2022)
